Usually inhibition stands for the relative decrease from the control value, in per cent.

These results are taken from paper PMC10132233 (Journal of Enzyme Inhibition and Medicinal Chemistry, 2023).

Assay [1] addresses T1, c-mesenchymal-epithelial transition factor (c-MET) (Homo sapiens, UniProt P08581).
T1 construct: purchased Reaction Biology Co. (Malvern, PA)
Nature of the assay: Small kinase panel, c-MET. In kind it is biochemical. The conditions noted are these: read-out: % kinase inhibition (relative to DMSO control) c-MET. As to the method:
(§1) Enzyme inhibitory assays were carried out as described in our previous reports in the literature. […] The HotSpot assay platform includes specific kinase/substrate pairs and required cofactors. The base reaction buffer consisted of 20 mM Hepes (pH 7.5), 10 mM MgCl2, 1 mM EGTA, 0.02% Brij35, 0.02 mg/mL BSA, 0.1 mM Na3VO4, 2 mM DTT, and 1% DMSO. The tested compounds were dissolved in 100% DMSO to a specific concentration, and serial dilution was conducted. The reaction mixture containing the tested compound and 33P-ATP was incubated at room temperature for 2 h, and radioactivity was detected using the filter-binding method.

A further assay has as its system PC3 cells. Nature of the assay: Cell cycle analysis (PI, ADAMII LS), PC3. In kind it is cell-based, human. As to conditions: PC3, compound at its IC50, 24 h. Here is the method: (§2) Cell cycle progression is responsible for normal cell growth and proliferation. DNA damage can result in apoptosis, which causes cell death, or DNA repair. At specific checkpoints that serve as control mechanisms to guarantee correct cell division, the state of the cells is evaluated. Checkpoints in the cell cycle include the G1 (restriction), S […], and G2/M[29]. Anticancer medications’ function is to halt cell division at these checkpoints. Treatment with potent cytotoxic (as an anticancer) agents can determine at which phase apoptosis occurs in the cell cycle. […] PC3 and 22RV1 cells were treated with compound 9f at its IC50. The comparison data in Table 6 and Figure 3 indicate that compound 9f (test 2) arrested the cell cycle of 22RV1 and PC3 cells at the G2/M phase by 62.74% and 49.43%, respectively (Figure 3). Also, the cell population in G1 and S phases decreases after treatment (test 2) compared to a negative control (test 1).
(§3) To determine the effect of the tested compound on the cell cycle distribution of PC3 and 22RV1 cell lines. Cell cycles can be analysed with checking the cell cycle change compared to the control group. Control cells without any treatment were used as a reference point for determining the cell cycle arrest phase for the test sample. Cell cycle analysis was performed using the Cell Cycle Analysis Kit (ADAMII LS, NanoEntek, Seoul, South Korea). Briefly, cancer cells were first seeded in six-well plates (0.8 × 10^6 cells per well) and then incubated for 24 h at 37 °C in a 5% CO2-containing atmosphere. […] 25 µL of sample mixture was loaded into ADAMII LS assay slide, then the slide was incubated at room temperature for 1 min in the dark and run on the ADAMII LS fluorescence cell analyser. Cell cycle distribution was calculated using ADAMII LS software (ADAMII LS, NanoEntek, Seoul, South Korea).

Assay [2] addresses T2, p38α mitogen-activated protein kinase (MAPK14) (Homo sapiens, UniProt Q16539).
T2 construct: purchased Reaction Biology Co. (Malvern, PA)
Kind of assay: Small kinase panel, MAPK14. The format is biochemical. The conditions noted are these: read-out: % kinase inhibition (relative to DMSO control) MAPK14. As to the method:
as §1

Assay [3] concerns the target T3, cyclin-dependent kinase 2 (CDK2) (Homo sapiens, UniProt P24941).
T3 construct: purchased Reaction Biology Co. (Malvern, PA)
Kind of assay: Small kinase panel, CDK2. The format is biochemical. As to conditions: read-out: % kinase inhibition (relative to DMSO control) CDK2. Here is the method:
as §1

For a further assay, the system named is 22RV1 cells. Kind of assay: Cell cycle analysis (PI, ADAMII LS), 22RV1. In kind it is cell-based, human. As to conditions: 22RV1, compound at its IC50, 24 h. As to the method:
as §2, §3

Assay [4] has as its target T4, fibroblast growth factor receptor 1 (FGFR1) (Homo sapiens, UniProt P11362).
T4 construct: purchased Reaction Biology Co. (Malvern, PA)
Nature of the assay: Small kinase panel, FGFR1. In kind it is biochemical. The conditions noted are these: read-out: % kinase inhibition (relative to DMSO control) FGFR1. As to the method: as §1

T1 sequence (P08581 25-1390): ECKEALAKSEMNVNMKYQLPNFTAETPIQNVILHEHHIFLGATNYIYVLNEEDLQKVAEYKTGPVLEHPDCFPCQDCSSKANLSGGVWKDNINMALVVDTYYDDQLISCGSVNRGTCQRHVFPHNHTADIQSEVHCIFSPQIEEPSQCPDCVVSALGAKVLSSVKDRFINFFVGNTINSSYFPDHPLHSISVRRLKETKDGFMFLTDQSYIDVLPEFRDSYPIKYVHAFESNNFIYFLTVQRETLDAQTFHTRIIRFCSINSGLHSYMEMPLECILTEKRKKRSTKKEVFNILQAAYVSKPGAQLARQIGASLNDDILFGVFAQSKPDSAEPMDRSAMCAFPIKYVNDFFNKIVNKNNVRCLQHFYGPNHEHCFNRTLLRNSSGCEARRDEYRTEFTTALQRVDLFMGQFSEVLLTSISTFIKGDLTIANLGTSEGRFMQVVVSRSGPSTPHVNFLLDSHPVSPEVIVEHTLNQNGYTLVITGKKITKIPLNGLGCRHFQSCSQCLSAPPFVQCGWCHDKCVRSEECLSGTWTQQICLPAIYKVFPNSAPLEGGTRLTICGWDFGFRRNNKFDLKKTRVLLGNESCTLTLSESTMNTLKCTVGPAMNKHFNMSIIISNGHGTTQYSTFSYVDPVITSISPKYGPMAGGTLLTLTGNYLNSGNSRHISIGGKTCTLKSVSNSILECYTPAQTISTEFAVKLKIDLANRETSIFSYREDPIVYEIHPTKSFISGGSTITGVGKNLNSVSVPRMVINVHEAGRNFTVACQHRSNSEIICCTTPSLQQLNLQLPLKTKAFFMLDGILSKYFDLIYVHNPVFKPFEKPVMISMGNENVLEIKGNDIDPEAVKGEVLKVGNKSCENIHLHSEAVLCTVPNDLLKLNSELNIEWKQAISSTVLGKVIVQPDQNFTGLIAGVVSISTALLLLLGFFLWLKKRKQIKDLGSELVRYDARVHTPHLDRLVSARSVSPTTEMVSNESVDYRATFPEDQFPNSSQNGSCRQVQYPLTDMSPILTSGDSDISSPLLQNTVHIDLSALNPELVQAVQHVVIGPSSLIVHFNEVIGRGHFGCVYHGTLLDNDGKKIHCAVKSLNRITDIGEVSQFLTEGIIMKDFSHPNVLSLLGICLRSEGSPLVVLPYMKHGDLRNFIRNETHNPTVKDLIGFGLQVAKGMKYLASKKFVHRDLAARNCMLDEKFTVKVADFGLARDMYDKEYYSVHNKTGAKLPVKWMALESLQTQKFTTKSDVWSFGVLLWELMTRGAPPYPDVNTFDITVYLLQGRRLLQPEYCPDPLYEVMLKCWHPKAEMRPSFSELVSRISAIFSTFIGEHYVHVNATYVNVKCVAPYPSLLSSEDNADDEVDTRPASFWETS
T2 sequence (Q16539 whole entry): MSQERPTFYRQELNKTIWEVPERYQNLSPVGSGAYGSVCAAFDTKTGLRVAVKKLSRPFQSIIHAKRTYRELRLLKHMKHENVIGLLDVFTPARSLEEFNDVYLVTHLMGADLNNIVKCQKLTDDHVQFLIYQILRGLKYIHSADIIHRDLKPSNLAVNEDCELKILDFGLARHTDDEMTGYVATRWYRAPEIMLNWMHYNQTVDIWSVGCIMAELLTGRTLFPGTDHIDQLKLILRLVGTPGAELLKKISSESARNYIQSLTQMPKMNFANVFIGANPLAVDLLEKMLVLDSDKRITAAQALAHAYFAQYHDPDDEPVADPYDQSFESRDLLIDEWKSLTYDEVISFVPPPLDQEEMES
T4 sequence (P11362 22-822): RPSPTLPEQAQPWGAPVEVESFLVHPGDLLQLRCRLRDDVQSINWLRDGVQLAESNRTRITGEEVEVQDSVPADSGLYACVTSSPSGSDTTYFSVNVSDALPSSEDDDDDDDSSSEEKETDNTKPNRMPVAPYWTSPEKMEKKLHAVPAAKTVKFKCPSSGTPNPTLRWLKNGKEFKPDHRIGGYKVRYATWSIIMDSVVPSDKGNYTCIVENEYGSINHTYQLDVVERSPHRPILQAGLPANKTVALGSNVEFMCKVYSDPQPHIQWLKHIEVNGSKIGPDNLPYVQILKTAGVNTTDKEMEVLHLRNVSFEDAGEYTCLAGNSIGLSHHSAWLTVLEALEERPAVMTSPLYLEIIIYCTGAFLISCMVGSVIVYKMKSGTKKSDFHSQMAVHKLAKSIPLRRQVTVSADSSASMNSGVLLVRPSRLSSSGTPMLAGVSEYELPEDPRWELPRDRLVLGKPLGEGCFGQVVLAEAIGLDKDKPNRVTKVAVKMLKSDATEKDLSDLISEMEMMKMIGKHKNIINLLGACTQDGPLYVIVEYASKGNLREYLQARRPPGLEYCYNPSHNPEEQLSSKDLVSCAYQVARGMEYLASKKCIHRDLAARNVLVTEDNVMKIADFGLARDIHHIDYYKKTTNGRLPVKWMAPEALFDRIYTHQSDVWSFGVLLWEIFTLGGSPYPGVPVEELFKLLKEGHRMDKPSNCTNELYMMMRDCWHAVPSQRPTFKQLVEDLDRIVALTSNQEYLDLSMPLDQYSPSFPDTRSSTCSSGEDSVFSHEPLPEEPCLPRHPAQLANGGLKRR

For `COc1cc2ncnc(Nc3ccc(Oc4cccc(C(F)(F)F)c4)c(Cl)c3)c2cc1OCCCCn1ccnc1[N+](=O)[O-]` [Compound 9f, N-(3-Chloro-4-(3-(trifluoromethyl)phenoxy)phenyl)-7-methoxy-6-(4-(2-nitro-1H-imidazol-1-yl)butoxy)quinazolin-4-amine], the inhibition at 10 µM amounted to 24.6% in assay [1], 24.3% in assay [2], 0.8% in assay [3] and 5.54% in assay [4]. The “G0/G1 phase Percent” value in the assay on PC3 cells is 7.22%; in the assay with 22RV1 cells, 6.08%. For the same compound, the figures for the “G2/M phase Percent” value in the assay on PC3 cells and with 22RV1 cells were 49.43% and 62.74%, respectively. Further, the “S phase Percent” value was found to be 28.14% in the assay on PC3 cells and 9.13% with 22RV1 cells.
